In patent US20070155687A1, “Methods and compositions for altering cell function” (Alltech, Inc., priority 2005, published 2007):

Tests used:
[1] = system: Thioredoxin Reductase 1 (Trx-1); assay: Intestinal gene expression: Thioredoxin Reductase 1; format: in vivo; details: mouse intestine; diet 1 ppm Se, 100 days; vs selenium deficient; all p < 0.01
Description: (§1) Animal Care. Male C57BL/6J mice were housed singly and started on the experimental diets described below immediately after weaning (21 days of age). The mice were maintained in the Shared Aging Rodent Facility at the William S. Middleton Memorial Veterans Administration Medical Center (Madison, Wis.). Temperature and humidity were maintained at constant levels. Room light was controlled to provide 12-hr cycles of light and dark.
(§2) Experimental diets were created by Harlan Teklad (Madison, Wis.). Selenium content of the diets was determined by Covance Inc. (Madison, Wis.). Five (5) animals were included in each of the following treatment groups: a diet deficient in selenium (SD); a diet supplemented with selenomethionine (SM, obtained from Sigma, St. Louis, Mo.) such that the final selenium content of the diet was one (1) part per million; a diet supplemented with sodium selenite (SS, Sigma) such that the final concentration of selenium in this diet was one (1) part per million; or a diet supplemented with the yeast selenium SEL-PLEX (SP, Alltech, Lexington, Ky), such that the final concentration of selenium in this diet was one (1) part per million. SEL-PLEX. […]
(§3) Tissue sample preparation and microarray analysis. […] For intestinal expression studies, the intestine was flushed twice with saline solution and small intestine was measured and divided in three equal segments. […]

[2] = system: type II iodothyronine deiodinase, (Dio2); assay: Intestinal gene expression: Dio2; format: in vivo; details: mouse intestine; diet 1 ppm Se, 100 days; vs selenium deficient
Description: as §1, §2, §3

Neurogenin 3 (Neurog3) = assay: Intestinal gene expression: Neurog3; format: in vivo; details: mouse intestine; diet 1 ppm Se, 100 days; vs selenium deficient
Description: as §1, §2, §3

[3] = Body weight of mice on selenium diets; format: in vivo, mouse; details: diet 1 ppm Se, 100 days; compared across diets incl. selenium deficient diet (FIG. 1)
Description: as §1
Experimental diets were created by Harlan Teklad (Madison, Wis.). Selenium content of the diets was determined by Covance Inc. (Madison, Wis.). […]
Thus, it was an object of the present invention to determine whether compositions and methods of the present invention could alter the expression levels (e.g., niRNA levels) of various genes. One group of genes analyzed were genes classically associated with selenium. As described above, the expression levels of genes were analyzed between mice with and without dietary selenium, or, between mice fed different sources of selenium) (See, e.g., Table 1, below).

SOD1 = assay: Intestinal gene expression: SOD1; format: in vivo; details: mouse intestine; diet 1 ppm Se, 100 days; vs selenium deficient
Description: as §1, §2, §3

[4] = system: Glutathione S-transferase, alpha 3 (Gsta3); assay: Intestinal gene expression: Gsta3; format: in vivo; details: mouse intestine; diet 1 ppm Se, 100 days; vs Se-deficient diets; negative = down; NS = not significant
Description: as §1, §2, §3

[5] = system: Glutathione S-transferase, mu2 (Gstm2); assay: Intestinal gene expression: Gstm2; format: in vivo; details: mouse intestine; diet 1 ppm Se, 100 days; vs Se-deficient diets; negative = down; NS = not significant
Description: as §1, §2, §3

[6] = system: Glutathione S-transferase, mu3 (Gstm3); assay: Intestinal gene expression: Gstm3; format: in vivo; details: mouse intestine; diet 1 ppm Se, 100 days; vs Se-deficient diets; negative = down; NS = not significant
Description: as §1, §2, §3

Structure (SMILES)	fold increase in expression of the Thioredoxin Reductase 1 gene [1]	Dio2 expression, down-regulation [2]	Neurog3 expression, upregulated (Neurogenin 3 (Neurog3))	body weights of mice [3]	enhanced expression of SOD1 (SOD1)	FC Gsta3 expression [4]	FC Gstm2 expression [5]	FC Gstm3 expression [6]
C[Se]CC[C@H](N)C(=O)O [SeM, selenomethionine]	1.8 fold	no ability to alter the expression levels	no significant alteration					
O=[Se](O)O [Sod-sel, sodium selenite]				No significant differences	1.92 fold	−2.3 fold	−2.1 fold	−2.7 fold
